Reference: US9073858B2, “Methods of targeted drug development” (priority 2010, dated 2015)
Read-outs that look alike come from different tables or passages of the source.

Legend:
[1] = tested on: epithelial carcinoma A431 cell line; assay: MTT Cell Proliferation Assay, A431 cell line; type: cell-based; conditions: for MTT (10 Point follow-up) ratio / MTT-72 h A431/MDBK (ratio): value in brackets; for MTT (10 Point follow-up) ratio: numerically MDBK over A431; for MTT-72 h A431/MDBK (ratio): numerically MDBK value over A431 value
Description: (§1) The following example describes the MTT Cell Proliferation Assay.
(§2) The MTT Cell Proliferation Assay is a colorimetric assay system that measures the reduction of the tetrazolium salt MTT (3-(4,5-dimethylthiazol-2-yl)-2,5-diphenyltetrazolium bromide) into insoluble formazan crystals, produced by the mitochondria of viable cells. […] The color can then be quantified by spectrophotometric means. Among the applications for the method are drug sensitivity, cytotoxicity, response to growth factors, and cell activation. The reduction of tetrazolium salts is now recognized as a safe, accurate alternative to radiometric testing.
(§3) Two replicates on each cell plate and 2 duplicate plates gave 4 individual replicates of each concentration, in each cell line. Concentrations were diluted in 100% DMSO from 25 mM stocks.
(§4) Twelve 96 well plates of each cell line were plated. Plating was done by dislodging cells as in passage protocol, counting on a hemocytometer, re-suspending in standard growth media, and plating using a multichannel pippetor.
(§5) 16 μl of 25 mM stock+34 μl DMSO=8 mM starting concentrations, and serial diluted as with test compounds in same plate. […] Two replicates of each concentrations was run on each cell plate. All compound addition and cell treatments were done using aseptic technique under a laminar flow aseptic hood.
(§6) Control: 0.5% DMSO in treatment media was used as the control.
(§7) MTT dye (Thiazolyl Blue Tetrazolium Bromide, Sigma cat # M5655) stock was prepared in bulk and stored at 4° C. for use: 5 mgs/ml sterile PDS, shielded from light. 4 ul of this stock per 100 uls treatment media per well was used.
(§8) Plates were incubated overnight prior to treatment, with treatment day=Day 0. Compound treatments were prepared prior to washing cells to minimize time cells were dry at room temperature after final aspiration. Compounds were diluted in 100% DMSO in 96 well polypropylene plates:40 μl 25 mM stock+10 μl DMSO=20 mM; 20 μl of 20 mM+30 μl DMSO=8 mM; 20 μl of 8 mM+30 μl DMSO=3.2 mM; 20 μl of 3.2 mM+30 μl DMSO=1.3 mM; 20 μl of 1.3 mM+30 μl DMSO=0.51 mM.
(§9) 5.0 μl/ml were added to treatment media, in sterile, 2.2 ml deep well plates=0.5% dmso final. Ten μl of each dmso concentration was added to 2.0 ml of treatment media and then mixed using a 1200 μl multichannel pipettor. Cell plates were treated from the deep well plates. Treatment media was standard growth media containing 0.5% FBS and standard additions. This reduced FBS concentration allowed for a slower growth rate in cells.
(§10) Media was aspirated from cell plates, and washed with 200 μl/well sterile PBS. Aspirated PBS wash, and cell plates were treated with 200 μl of compound/treatment media per well, and incubated at 37° C., 5% CO2 for 3 days.
(§11) Prior to harvesting, visual observations were made under an inverted microscope. Plates were harvested by: aspirating the growth media; adding back MTT dye/100 μl treatment media; and incubating plates at 37° C. for 1 hour. MTT dye was aspirated. 100 μl/well dmso was added, and then shaken on a Bellco plate shaker for 5 minutes, at 4.5 setting.
(§12) Plates were read in a Tecan Sunrize UV plate reader, at 560 nm. Settings: Read mode, Outside Normal 2 sec; Shake settle time 3 sec. Data is reported as % inhibition, calculated for individual plates using control values from that plate.

MDBK line = assay: MTT Cell Proliferation Assay, MDBK line; type: cell-based, bovine
Description: as §1, §2, §3, §4, §5, §6, §7, §8, §9, §10, §11, §12

EGFR = biological target: T1, EGFR (Homo sapiens, UniProt P00533); assay: EGFR in-cell Western (ICW) screening protocol; type: cell-based; set-up: unit not given here; conditions: for ICW Screen: initial screen
T1 construct: endogenous in cells; host or cells: A431 cells (ATCC CRL-1555)
Experimental: The following example describes general EGFR in-cell Western (ICW) screening protocol.
Two cell plates were prepared for each compound plate.
Serum Starvation: The cells were serum starved prior to compound addition. […] The cell plates were incubated at 37° C./5% CO2 for 2 hours.
Prepared compound plates were stored at RT prior to use and at 4° C. long term.
Compound Dilution Plate Preparation: 250 μl of DMEM supplemented with 1 mg/ml BSA (Sigma A3059-10G) was added to the appropriate wells of a 96 well plate to prepare the compound dilution plates. Using a multichannel pipettor, 1.25 μl of compound from the compound plate was transferred into the compound dilution plate.
Compound Addition: The starve media was removed from the cell plates by aspiration. Using a multichannel pipettor, the compound dilution plates were mixed by pipetting up and down three times. 50 μl of mixed, diluted compound was added to each of two rows/columns on each of two cell plates. The cell plates with compound were incubated at 37° C./5% CO2 for 4 hours.
50 μl of 20 or 0 ng/ml EGF was added to the appropriate wells without the removal of compound. The compound and EGF were mixed by pipetting up and down three times.
The plates were incubated at RT for 20 min without shaking. The Fixation Solution was removed by aspiration and the plates washed four times with 200 μl each of Triton Wash Solution (1×PBS, Sigma P3813-10PK, and 0.1% Triton X-100, T8787-50ML) for 5 min with gentle shaking.
The block was removed by aspiration and 50 μl of diluted primary Ab mix was added. The plates were incubated at 4° C. overnight with gentle shaking. The plates were washed five times with 200 μl of PBST (1×PBS, Sigma P3813-10PK, and 0.1% Tween-20, Sigma P9416-50ML) for 5 min each with shaking. 50 μl of diluted secondary Ab mix was added and the plates incubated at RT for 1 h with shaking. The plates were washed 5× with 200 μl of PBST for 5 min each with shaking. One final wash with 200 μl of PBS (Sigma P3813-10PK) for 5 min with shaking was performed prior to scanning.
In some screening assays, the dilution of the secondary Ab conjugates was 1/800 rather than 1/1200.
Plate Scanning: The plates were scanned on an Odyssey Infrared Imaging System from LI-COR Biosciences. The focus offset was set at 3.5 mm and the scanning intensity set at 3 for the 700 channel and 7 for the 800 channel.
Data Analysis: The % of Maximum and % Inhibition values were calculated as follows. 700 Channel=signal for total EGFR (used to control for variation in cell number). 800 Channel=signal for phosphorylated EGFR. 800−EGF=basal level EGFR phosporylation+non-specific signal (no compound). 800+EGF=800−EGF+EGF dependent EGFR receptor phosphorylation (no compound). 700/800com=700 or 800 channel signals with compound. % Maximum={[(800com/700com)−(800−EGF/700−EGF)]/[(800+EGF/700+EGF)−(800−EGF/700−EGF)]}×100%. % Inhibition=100%−(% Maximum).

[2] = 72 h, first value of A431/MDBK pair, read-out: MTT-72 h A431
[3] = Homo sapiens, A-431, 10 point follow-up, first value of pair, read-out: MTT (10 Point follow-up) A431
[4] = Bos taurus, MDBK, 10 point follow-up, second value of pair, read-out: MTT (10 Point follow-up) MDBK
[5] = Bos taurus, MDBK, 72 h, second value of A431/MDBK pair, read-out: MTT-72 h MDBK
[6] = Homo sapiens, A-431, 72 h, 72 h, first value of A431/MDBK pair, read-out: MTT-72 h A431
[7] = 10 point follow-up, first value of pair, read-out: MTT (10 Point follow-up) A431
[8] = 10 point follow-up, second value of pair, read-out: MTT (10 Point follow-up) MDBK

T1 sequence (P00533 25-1210): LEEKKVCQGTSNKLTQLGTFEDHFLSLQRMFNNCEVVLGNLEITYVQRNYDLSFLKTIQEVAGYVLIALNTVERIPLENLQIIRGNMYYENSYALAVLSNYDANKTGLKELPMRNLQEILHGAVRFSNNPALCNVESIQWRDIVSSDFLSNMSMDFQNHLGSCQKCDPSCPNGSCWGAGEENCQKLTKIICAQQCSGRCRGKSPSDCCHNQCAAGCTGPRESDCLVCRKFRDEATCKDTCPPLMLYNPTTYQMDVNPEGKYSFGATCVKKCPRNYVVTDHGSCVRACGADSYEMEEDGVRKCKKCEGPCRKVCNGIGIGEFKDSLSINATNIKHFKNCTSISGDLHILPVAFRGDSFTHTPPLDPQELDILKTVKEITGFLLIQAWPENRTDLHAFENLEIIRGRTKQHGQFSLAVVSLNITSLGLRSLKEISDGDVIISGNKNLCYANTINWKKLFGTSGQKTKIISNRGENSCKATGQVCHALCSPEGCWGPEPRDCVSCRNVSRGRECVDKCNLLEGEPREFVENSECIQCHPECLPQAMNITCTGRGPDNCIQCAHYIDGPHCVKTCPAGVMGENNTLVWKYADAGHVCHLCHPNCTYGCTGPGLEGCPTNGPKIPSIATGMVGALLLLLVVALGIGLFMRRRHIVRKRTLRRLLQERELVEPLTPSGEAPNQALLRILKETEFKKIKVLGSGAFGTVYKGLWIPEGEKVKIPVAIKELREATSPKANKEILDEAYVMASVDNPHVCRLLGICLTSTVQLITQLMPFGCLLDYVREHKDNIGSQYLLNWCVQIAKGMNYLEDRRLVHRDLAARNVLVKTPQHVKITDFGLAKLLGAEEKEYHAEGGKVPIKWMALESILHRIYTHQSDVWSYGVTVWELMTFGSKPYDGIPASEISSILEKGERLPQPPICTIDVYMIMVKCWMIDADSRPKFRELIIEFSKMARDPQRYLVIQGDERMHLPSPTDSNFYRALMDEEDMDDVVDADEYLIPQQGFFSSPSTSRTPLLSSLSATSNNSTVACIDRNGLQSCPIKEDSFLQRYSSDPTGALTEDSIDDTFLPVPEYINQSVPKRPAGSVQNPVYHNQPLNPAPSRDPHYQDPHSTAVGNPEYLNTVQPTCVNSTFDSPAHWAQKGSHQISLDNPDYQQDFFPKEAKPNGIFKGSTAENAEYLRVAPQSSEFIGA

SMILES	MTT (10 Point follow-up) ratio ([1]; 10 point follow-up)	IC50 [1, 2] [nM]	MTT-72 h A431/MDBK (ratio) ([1]; 72 h)	IC50 [1, 3] [nM]	IC50 (MDBK line; [4]) [nM]	IC50 (MDBK line; [5]) [nM]	ICW Screen (EGFR)	IC50 [1, 6] [nM]	ICW Re-Test (EGFR)	IC50 [1, 7] [nM]	IC50 (MDBK line; [8]) [nM]	IC50 (MDBK line; 72 h, second value of A431/MDBK pair, read-out: MTT-72 h MDBK) [nM]
Cc1cccc(NC(c2ccc3c(c2)OCO3)c2ccc3cccnc3c2O)n1 (centres unmarked) [compound 10487]	0.72	5510	0.96	1330	963	5280	33.14	–	–	–	–	–
Oc1cccnc1NC(c1ccccc1F)c1ccc2cccnc2c1O (centres unmarked) [compound 10512]	1.92	–	–	517	991	–	12.86	–	–	–	–	–
Oc1c(C(Nc2ccccn2)c2cccnc2)cc(Cl)c2cccnc12 (centres unmarked) [compound 10955]	–	–	0.97	–	–	5360	37.33	5500	53.58	–	–	–
Cc1ccnc(NC(c2ccc3cccnc3c2O)c2c(O)cccc2Cl)c1 (centres unmarked) [compound 10067]	2.14	–	1.60	1380	2950	3450	12.5	2150	–	–	–	–
CC(C)C(=O)NC(c1cccs1)c1cc([N+](=O)[O-])c2cccnc2c1O (centres unmarked) [compound 10950]	1.63	–	1.70	540	878	950	33.87	560	99.56	–	–	–
COc1ccc(NC(c2cccnc2)c2ccc3cccnc3c2O)cc1 (centres unmarked) [compound 11152]	–	–	0.92	–	–	8240	60.41	9000	48.96	–	–	–
CCCC(=O)NC(c1ccc(O)c(OCC)c1)c1cc([N+](=O)[O-])c2cccnc2c1O (centres unmarked) [compound 10959]	2.16	–	2.47	960	2070	2430	42.18	980	87.34	–	–	–
Cc1cccc(NC(c2ccccc2F)c2ccc3cccnc3c2O)n1 (centres unmarked) [compound 10015]	0.99	–	–	3310	3280	–	25.99	–	–	–	–	–
Cc1cccc(NC(c2ccccc2C)c2ccc3ccc(C)nc3c2O)n1 (centres unmarked) [compound 10026]	–	–	0.97	–	–	5190	37.03	5220	41.06	–	–	–
COc1ccc(C(Nc2ccccn2)c2ccc3ccc(C)nc3c2O)cc1OC (centres unmarked) [compound 10006]	–	–	1.37	–	–	15100	35.13	11000	45.57	–	–	–
Cc1cccc(NC(c2ccc(C(F)(F)F)cc2)c2ccc3cccnc3c2O)n1 (centres unmarked) [compound 10483]	–	260	–	–	–	–	17.58	–	–	253	481	490
Oc1c(C(Nc2ccccn2)c2ccc(Cl)cc2Cl)ccc2cccnc12 (centres unmarked) [compound 10046]	1.87	–	–	–	–	–	12.78	–	–	1660	3100	–
CCOc1cc(C(NC(=O)C(C)(C)C)c2cc([N+](=O)[O-])c3cccnc3c2O)ccc1O (centres unmarked) [compound 10941]	1.56	–	1.02	1120	1750	6050	27.61	5920	67.81	–	–	–
Oc1c(C(Nc2ccccn2)c2cccc(F)c2)cc(Cl)c2cccnc12 (centres unmarked) [compound 10090]	1.48	–	1.06	1760	2600	5620	21.53	5280	–	–	–	–
Cc1ccnc(NC(c2ccccc2F)c2ccc3cccnc3c2O)c1 (centres unmarked) [compound 10488]	1.20	–	–	1850	2220	–	15.95	–	–	–	–	–
